Experimental data as given in US20070167408A1, “NOVEL ALKYL PHOSPHOLIPID DERIVATIVES WITH REDUCED CYTOTOXICITY AND USES THEREOF” (ZENTARIS GmbH, priority 2005, published 2007).
Like-named read-outs stand apart in the source and are kept apart here.

Experiments:
Assay type in all cases: cell-based
[1] = tested on: RKOp21 (human colon adenocarcinoma) cells; assay: XTT cytotoxicity assay, RKOp21 cells; conditions: read-out: RKOp21 [IC50 (μM)]
Method: (§1) Cytotoxicity of selected compounds of the invention against different mammalian cell lines was assessed as follows.
(§2) Human tumor cell lines KB/HeLa (ATCC CCL17, human cervix carcinoma), PC3 (ATCC CRL1435, human prostate carcinoma) and RKOp21 (human colon adenocarcinoma; Schmidt et al., Oncogene 2000, 19: 2423-2429) cells were used in an automated XTT screening assay for the assessment of cytotoxicity.
(§3) The XTT assay quantifies cellular metabolic activity which correlates with cell viability and cell number. Test compounds (selected compounds of the invention and known substances as controls) are dissolved in culture medium at 600 μM and added to the tumor cells in 10 different concentrations in a semi-logarithmic fashion starting from 100 μM as highest concentration.
(§4) In a second set of experiments employing PC3, RKOp21 and SKOV-3 (ATCC HTB-77, human ovary adenocarcinoma) cells, test and reference compounds were dissolved in 70% Ethanol/30% H2O in a stock concentration of 10 mM and diluted in cell culture medium to yield either 31.6 μM (PC3 and RKOp21) or 100 μM (SKOV-3) final concentration.
(§5) 48 h later cellular metabolic activity of cells treated with test compounds is quantified by measurement of the absorbance at 490 nm (conversion of XTT dye) in comparison to untreated control cells (100% viability).
(§6) KB/HeLa and PC3 cells were cultivated in RPMI 1640 medium (Gibco, Cat. No. 42401-018) supplemented with 10% heat inactivated fetal calf serum (FCS, Biochrom AG, Cat. No. S0115), 2 mM L-glutamine (Gibco, Cat. No. 25030-24) and 2% Penicillin-Streptomycin (PenStrep, Gibco, Cat. No. 15140-122). RKOp21 cells were grown in DMEM+GlutaMAXTM-I medium (Gibco, Cat. No. 61965-026) supplemented with 10% heat inactivated fetal calf serum (FCS, Biochrom AG, Cat. No. S0115), 2 mM L-glutamine (Gibco, Cat. No. 25030-24), 2% Penicillin-Streptomycin (PenStrep, Gibco, Cat. No. 15140-122) and 1% 1M HEPES (Gibco, Cat. No. 15630-056). All cells were cultured at 37° C. in 5% CO2 humidified air.
(§7) On the first day of the experiment cells were harvested from exponential phase cultures by trypsination, counted and plated into 96 well flat-bottom micro titer plates depending on the cell line as listed below:
(§8) After a 24 h recovery to allow the cells to resume exponential growth, the test compounds were diluted immediately prior to use and transferred in 25 μl volume to the wells.
(§9) Following 2 days of continuous drug exposure 50 μl of freshly prepared XTT-PMS solution {2% 0.386 mg/ml PMS (N-Methyl Dibenzopyrazine Methylsulphate; Sigma, Cat. No. P9625) in PBS+98% 1 mg/ml XTT (Sodium 2,3-bis(2-methoxy-4-nitro-5-sulfophenyl)-5-[(phenylamino)carbonyl]-2H-Tetrazolium; Serva, Cat. No. 38450) in RPMI 1640 medium without phenol red} was added to the wells. To measure the proportion of living cells, the cells were incubated for 3 h with XTT-PMS reagent at 37° C., 5% CO2, humidified atmosphere allowing to form the formazan salt. The amount of soluble formazan salt produced by cellular reduction of XTT is quantified by measuring the absorbance at 490 nm using the Biomek® 2000 ELISA plate reader. %-inhibition (cytotoxicity) of each test compound was calculated in relation to untreated control cells. Inhibition curves were generated and IC50 values calculated by using GraphPad Prism.

[2] = tested on: KB/HeLa (human cervix carcinoma) cells; assay: XTT cytotoxicity assay, KB/HeLa cells; conditions: read-out: KB/HELA [IC50 (μM)]
Method: as §1, §2, §3, §5, §6, §7, §8, §9

[3] = tested on: PC3 (human prostate carcinoma) cells; assay: XTT cytotoxicity assay, PC3 cells; conditions: read-out: PC3 [IC50 (μM)]
Method: as §1, §2, §3, §4, §5, §6, §7, §8, §9

[4] = Homo sapiens, XTT, 48 h exposure
[5] = Homo sapiens, HeLa, XTT, 48 h exposure
[6] = Homo sapiens, PC-3, XTT, 48 h exposure

| Structure (SMILES) | IC50 [1, 4] | IC50 [2, 5] | IC50 [3, 6] | other results |
| --- | --- | --- | --- | --- |
| CCCCCCCCCCCCCCCCCCCCOP(=O)([O-])OC1CCC[N+](C)(C)CC1 (stereo not drawn) [Compound 86] | > 100 µM | 75.6 µM | > 100 µM | – |
| CC(C)CCCC(C)C1CCC2C3=CC=C4CC(OP(=O)([O-])OCC[N+](C)(C)C)CCC4(C)C3CCC21C (stereo not drawn) [Compound 48] | > 100 µM | > 100 µM | > 100 µM | – |
| CCCCCCCC/C=C\CCCCCCCC(=O)OCC(COP(=O)([O-])OCC[As+](C)(C)C)OC(=O)CCCCCCC/C=C\CCCCCCCC (stereo not drawn) [Compound 311] | – | – | – | IC50 ([1]; Homo sapiens, 48 h): > 100 µM; IC50 ([2]; Homo sapiens, HeLa, 48 h): > 100 µM; IC50 ([3]; Homo sapiens, PC-3, 48 h): > 100 µM |
| CCCCCCCC/C=C\CCCCCCCCCCCCOP(=O)([O-])OCC[As+](CC)(CC)CC [Compound 159] | – | – | – | IC50 ([1]; XTT, 48 h exposure): 21 µM; IC50 ([2]; XTT, 48 h exposure): > 100 µM; IC50 ([3]; XTT, 48 h exposure): 37.7 µM |
| CCCCCCCC/C=C\CCCCCCCCOP(=O)([O-])OCC[N+]1(C)CCCC1 [Compound 91] | > 100 µM | > 100 µM | 86.8 µM | – |
| CC(C)CCCC(C)C1CCC2C3CCC4CC(OP(=O)([O-])OCC[N+](C)(C)C)CCC4(C)C3CCC12C (stereo not drawn) [Compound 41] | > 100 µM | > 100 µM | > 100 µM | – |
| CCCCCCCC/C=C\CCCCCCCCOP(=O)([O-])OCC[N+](C)(C)CC [Compound 82] | 20.5 µM | 37.7 µM | 45.6 µM | – |
| CCCCCCCCCCCCCCCCOP(=O)(O)OCCN1CCCC1 [Compound 63] | > 100 µM | > 100 µM | > 100 µM | – |
| CCCCCCCCCCCCCCCCOP(=O)([O-])OCC[n+]1cccc(C(=O)OCC)c1 [Compound 190] | > 100 µM | 100 µM | 73.3 µM | – |
| CCCCCCCC/C=C\CCCCCCCCCCCCOP(=O)([O-])OCC[N+]1(C)CCC(O)CC1 (stereo not drawn) [Compound 133] | > 100 µM | > 100 µM | 81.6 µM | – |
| CCC(C)CC(C)CC(C)CC(C)COP(=O)([O-])OCC[N+](C)(C)C (stereo not drawn) [Compound 235] | > 100 µM | > 100 µM | > 100 µM | – |
| CCCCCCCCCCCCCCCCCCOP(=O)([O-])OCc1cccc[n+]1C [Compound 147] | > 100 µM | > 100 µM | > 100 µM | – |
| C[C@H](CCC(=O)O)[C@H]1CCC2[C@@H]3CC[C@@H]4C[C@H](OP(=O)([O-])OCC[N+](C)(C)C)CC[C@]4(C)[C@H]3CC[C@@]21C (stereo partly drawn) [Compound 59] | > 100 µM | > 100 µM | > 100 µM | – |
| CCCCCCCCCCCCCCCCOP(=O)([O-])OC1CC[N+](CC)(CC)CC1 [Compound 200] | > 100 µM | 66.4 µM | 34.5 µM | – |
| C#CC[N+]1(C)CCC(OP(=O)([O-])OCCCCCCCCCCCCCCCC)CC1 (stereo not drawn) [Compound 262] | > 100 µM | 10.1 µM | 31.2 µM | – |
| CCCCCCCCCCCCCCCCOP(=O)([O-])OCC1CC[N+](C)(C)CC1 [Compound 153] | > 100 µM | 38.2 µM | 39.8 µM | – |

| Structure (SMILES) | IC50 [1, 4] | IC50 [2, 5] | IC50 [3, 6] | other results |
| --- | --- | --- | --- | --- |
| CCCCCCCCC#CCCCCCCCCOP(=O)([O-])OCC[N+]1(C)CCCCC1 [Compound 145] | > 100 µM | > 100 µM | > 100 µM | – |
| CCCCCCCC/C=C\CCCCCCCCCCCCOP(=O)([O-])OCC[N+](CC)(CC)CC [Compound 275] | 44.4 µM | > 100 µM | 69.2 µM | – |
| CCCCC/C=C\C/C=C\CCCCCCCCOP(=O)([O-])OCC[N+](C)(C)C [Compound 55] | > 100 µM | > 100 µM | > 100 µM | – |
| CCCCCCCC/C=C\CCCCCCCCOCCOCCOP(=O)([O-])OC1CC[N+](C)(C)CC1 [Compound 256] | > 100 µM | > 100 µM | 82 µM | – |
| CCCCCCCC/C=C\CCCCCCCCCCCCOP(=O)([O-])OC1CC[N+](CC)(CC)CC1 [Compound 203] | > 100 µM | > 100 µM | 63.1 µM | – |
| CCCCCCCCCCCCCCCCCCOP(=O)([O-])OCCN1CC[N+](C)(C)CC1 [Compound 154] | 77.4 µM | 12.6 µM | 18.2 µM | – |
| CCCCCCCC/C=C\CCCCCCCCCCCCOP(=O)([O-])OC1CCC[N+](C)(CCc2ccccc2)CC1 (stereo not drawn) [Compound 185] | > 100 µM | > 100 µM | 30.4 µM | – |
| CCCCCCCCCCOCCOCCOP(=O)([O-])OCC[N+](C)(C)C [Compound 123] | 76.6 µM | 39.1 µM | 21.8 µM | – |
| CCC(C)CC(C)CC(C)CC(C)COP(=O)([O-])OC1CC[N+](C)(C)CC1 (stereo not drawn) [Compound 258] | > 100 µM | > 100 µM | > 100 µM | – |
| CCCCCCCC/C=C\CCCCCCCCCCCCOP(=O)([O-])OCCC1=C(C)[N+](C)=CC1 [Compound 172] | 65.5 µM | > 100 µM | 29.8 µM | – |
| CCCCCCCCCCCCCCCCOP(=O)(O)OCCN1CCOCC1 [Compound 60] | > 100 µM | > 100 µM | > 100 µM | – |
| CCCCCCCCCCCCCCCCCCOP(=O)([O-])OCC1CC[N+](C)(C)CC1 [Compound 152] | > 100 µM | 32.3 µM | 23.9 µM | – |
| CC(C)CCCC(C)C1CCC2C3CC=C4CC(OP(=O)([O-])OCC[N+](C)(C)C)CCC4(C)C3CCC12C (stereo not drawn) [Compound 46] | > 100 µM | > 100 µM | > 100 µM | – |
| CCCCCCCCCCCCCCCCOP(=O)([O-])OC1C[N+]2(C)CCC1CC2 (stereo not drawn) [Compound 76] | 68.8 µM | 11.3 µM | 25 µM | – |
| CCCCCCC1CCC(CCOP(=O)([O-])OCC[N+]2(C)CCCCC2)CC1 (stereo not drawn) [Compound 180] | > 100 µM | > 100 µM | > 100 µM | – |
| CCCCCCCC/C=C\CCCCCCCCOP(=O)([O-])OCC[N+]1(C)CCCCC1 [Compound 97] | 89.4 µM | > 100 µM | 49.4 µM | – |
